Structures can show the parent of a compound that is named as a salt. Where two headings read alike, the source gives them in different places.

A short description of data set [1]: Compound cytotoxicity against CaCo-2 cells at 48 hours. The conditions noted are these: human, CaCo-2 cells; Table 5, further results of Examples 1 and 2; mean ± spread. In kind it is cell-based, Human. The procedure:
The cytotoxicity of the profiled compounds towards CaCo-2 cells at 48 hours was assessed. […] After 48 hours, cytotoxicity was evaluated using both digital phase contrast readout as described above and ATP determination (Cell titre-glo, Promega Corp).

For data set [2], the system named is SARS-CoV-2. Description: microbe, parasite or virus in culture. The conditions noted are these: Severe acute respiratory syndrome coronavirus 2, Caco-2, 48 h; for inhibition at 10 µM: read-out: % Inh. (% Inhibition of SARS-CoV-2).
Data set [3] has as its system SARS-CoV-2. The conditions noted are these: for % Inh. (% Inhibition of SARS-CoV-2): 10 µM.

On to `CCOC(=O)O[C@]1(C(=O)OCCl)CC[C@H]2[C@@H]3CCC4=CC(=O)C=C[C@]4(C)[C@H]3[C@@H](O)C[C@@]21C` [Loteprednol etabonate], for which it took 49 ± 45.9 µM to reach half-maximal cytotoxicity in data set [1] (CC50 at 48 h). Besides, in data set [2], the IC50 was found to be 21.3 µM and the inhibition at 10 µM stood at 102%. Moreover, the IC50 in data set [2] (read-out: pIC50 (converted)) was 21.4 µM.

As for `NC(=O)N1CCC(CC(=O)N2CCC([C@H]3c4ncc(Br)cc4CCc4cc(Cl)cc(Br)c43)CC2)CC1` [Lonafarnib (SCH66336), Lonafarnib], the 50% cytotoxic concentration (CC50) at 48 h in data set [1] amounted to 10.7 ± 7.39 µM.

The molecule `CCOc1ccc(/C=C2\NCCc3cc(OCC)c(OCC)cc32)cc1OCC` [drotaverine] returned a CC50 at 48 h in data set [1] of 9 ± 0.96 µM. Further, the inhibition at 10 µM in data set [2] worked out at 93.1%.

In data set [1], `OC(c1cc(C(F)(F)F)nc2c(C(F)(F)F)cccc12)C1CCCCN1` (stereo not shown) [MEFLOQUINE HYDROCHLORIDE] came in with a CC50 at 48 h of 33 ± 7.96 µM. Moreover, the IC50 in data set [2] was 28.9 µM; in data set [2] (read-out: pIC50 (converted)), 28.8 µM. Besides, the inhibition at 10 µM in data set [2] is 93.3%.

The molecule `CC(C)(C)Cn1c(N)nc2ccc(-c3[nH]c(C(C)(C)C)nc3-c3ccc(F)cc3)nc21` [LY2228820, Ralimetinib] displayed a CC50 at 48 h in data set [1] of 56.2 ± 9.79 µM. For the same molecule, in data set [2], the inhibition at 10 µM amounted to 112%.

Consider `CNC(=O)c1cc(Oc2ccc(NC(=O)Nc3ccc(Cl)c(C(F)(F)F)c3)cc2)ccn1` [Sorafenib Tosylate], for which the CC50 at 48 h in data set [1] worked out at 1.17 ± 0.43 µM. Moreover, in data set [2], the IC50 amounted to 1.21 µM and the inhibition at 10 µM came to 78.7%. Further, the IC50 in data set [2] (read-out: pIC50 (converted)) is 1.2 µM.

`Cc1c(C(=O)Nc2ccc(N3C[C@@H](C)O[C@@H](C)C3)nc2)cccc1-c1ccc(OC(F)(F)F)cc1` [LDE225 (NVP-LDE225, Erismodegib), Erismodegib]: the CC50 at 48 h in data set [1] is 2.26 ± 1.28 µM. In addition, in data set [2], the IC50 is 7.03 µM and the inhibition at 10 µM came to 93.5%. The IC50 in data set [2] (read-out: pIC50 (converted)) was 7.08 µM.

As for `Fc1ccc(C(c2ccc(F)cc2)N2CCN(C/C=C/c3ccccc3)CC2)cc1` [flunarizine], the CC50 at 48 h in data set [1] was 137 ± 72.3 µM. In data set [2], the inhibition at 10 µM is 79.1%.

For the molecule `Cc1nc2ccccc2n1Cc1ccc(Cl)cc1` [CHLORMIDAZOLE], the CC50 at 48 h in data set [1] turned out to be 0.88 ± 0.82 µM. In data set [2], this molecule came in with an IC50 above 1 µM.

`C=CCNc1nc(NCC=C)nc(N2CCN(C(c3ccc(F)cc3)c3ccc(F)cc3)CC2)n1` [Almitrine dimesilate]: in data set [1], the CC50 at 48 h is 102 ± 73.6 µM. Besides, in data set [2], the IC50 was found to be 1.21 µM and the inhibition at 10 µM amounted to 93.2%. Moreover, the IC50 in data set [2] (read-out: pIC50 (converted)) was 1.2 µM.

In the case of `CC(=O)N1CCN(c2ccc(OCC3COC(Cn4ccnc4)(c4ccc(Cl)cc4Cl)O3)cc2)CC1` (stereo not shown) [KETOCONAZOLE], the midpoint of cytotoxicity in data set [1], the CC50 at 48 h, lay at 28.6 ± 4.97 µM. In data set [2], the inhibition at 10 µM came out at 87.1%.

With `O=c1ccc2ccc(OCCCCN3CCN(c4cccc5sccc45)CC3)cc2[nH]1` [Brexpiprazole], it took 50.6 ± 68.7 µM to reach half-maximal cytotoxicity in data set [1] (CC50 at 48 h). Also, in data set [2], the IC50 amounted to 22.9 µM and the inhibition at 10 µM is 84.8%. The IC50 in data set [2] (read-out: pIC50 (converted)) is 22.9 µM.

In data set [1], `FC(F)(F)c1ccc(CNc2ccc(Cc3c[nH]c4ncc(Cl)cc34)cn2)cn1` [Pexidartinib] came in with a CC50 at 48 h of 41.5 ± 32.5 µM. In addition, the IC50 was 5.92 µM in data set [2] and 5.89 µM in data set [2] (read-out: pIC50 (converted)).

Regarding `CC1=C(CCC(=O)O)c2cc3[nH]c(cc4nc(cc5[nH]c(cc1n2)c(C)c5C(C)O)C(C)=C4C(C)O)c(C)c3CCC(=O)O` (stereo not shown) [hematoporphyrin], the CC50 at 48 h in data set [1] is 160 ± 139 µM. Moreover, in data set [2], the inhibition at 10 µM came out at 96.8%.

`Cn1c(C#N)ccc1-c1ccc2c(c1)C(C)(C)OC(=S)N2` [Tanaproget]: the IC50 was 1.13 µM in data set [3], above 1 µM in data set [2] and 1.12 µM in data set [2] (read-out: pIC50 (converted)). Also, the inhibition at 10 µM in data set [2] turned out to be 96.2%.

Consider `COc1cc(Br)c(Nc2nc(-c3c(C)nc4ncccn34)cs2)c(Br)c1` [PTC-209], for which, in data set [3], the “% Inh. (% Inhibition of SARS-CoV-2)” value is listed as 103.6%.

Take `CC(C)(C)c1cc(O)c(C(C)(C)C)cc1O` [BHQ]: in data set [3], the “% Inh. (% Inhibition of SARS-CoV-2)” value worked out at 50.6%.

With `CCCCCCCC/C=C/CCCCCCCC(=O)OC[C@H]1O[C@@H](n2ccc(N)nc2=O)C(F)(F)[C@@H]1O` [Gemcitabine (elaidate)], the “% Inh. (% Inhibition of SARS-CoV-2)” value in data set [3] turned out to be 111.3%.

As for `COc1cc(/C=C2\CCCN([C@@H](C)c3ccc(F)cc3)C2=O)ccc1-n1cnc(C)c1` [E 2012], in data set [3], the “% Inh. (% Inhibition of SARS-CoV-2)” value was found to be 100.8%.

Regarding `CN([C@@H](Cc1ccc(OS(=O)(=O)c2cccc3cnccc23)cc1)C(=O)N1CCN(c2ccccc2)CC1)S(=O)(=O)c1cccc2cnccc12` [KN-62], in data set [3], the “% Inh. (% Inhibition of SARS-CoV-2)” value is reported as 96.5%.

Consider Exatecan Mesylate, for which the “% Inh. (% Inhibition of SARS-CoV-2)” value in data set [3] was found to be 70.1%.

On to `COc1cc2cc(c1Cl)N(C)C(=O)C[C@H](OC(=O)C(C)C)[C@]1(C)O[C@@H]1[C@H](C)[C@@H]1C[C@@](O)(NC(=O)O1)[C@H](OC)/C=C/C=C(\C)C2` [Ansamitocin P-3], for which the “% Inh. (% Inhibition of SARS-CoV-2)” value in data set [3] amounted to 62.6%.

Regarding `O=C(CNC(=O)c1cccc(C(F)(F)F)c1)N[C@@H]1CCN(Cc2ccc(Cl)cc2)C1` [Teijin-compound-1], in data set [3], the “% Inh. (% Inhibition of SARS-CoV-2)” value stood at 85.7%.

Consider `Cc1ccc(C(=O)N(CCCN)[C@@H](c2oc3cc(Cl)ccc3c(=O)c2Cc2ccccc2)C(C)C)cc1` [SB-743921], for which the “% Inh. (% Inhibition of SARS-CoV-2)” value in data set [3] was found to be 78.9%.

On to `CCc1nc2ccc(Cl)cn2c1C(=O)NCc1ccc(N2CCC(c3ccc(OC(F)(F)F)cc3)CC2)cc1` [Q-203], for which the “% Inh. (% Inhibition of SARS-CoV-2)” value in data set [3] turned out to be 96.9%.

`CCCCN1C[C@H](O)[C@@H](O)[C@H](O)[C@H]1CO` [Miglustat (n-Butyldeoxynojirimycin)]: in data set [3], the “% Inh. (% Inhibition of SARS-CoV-2)” value is listed as 64.4%.
